Laboratory results taken from patent US6613356B1, “Weight loss medication and method” (priority 2000, dated 2003).
Where two headings read alike, the source gives them in different places.

Key:
[1] = system: mouse colons; details: cited from earlier work
[2] = cited from earlier work
[3] = 10 week experiment in adolescent common white mice fed K butyrate in chocolate; type: in vivo
Experimental: Two mouse experiments involved 8 adolescent common white mice, still in the growth period. Four were assigned to the butyrate group and were fed K butyrate mixed in pieces of chocolate 300-400 mg size twice a day, and the other four mice were assigned to the non-butyrate group and were fed the same size pieces of plain chocolate. Both groups of mice were otherwise cared for in an identical fashion and fed twice as many food pellets as recommended. The dose of butyrate initially chosen was 3.47 mg per dose scaled down from the human dose according to the ratio of body surface area of mouse compared to man. This was estimated at 1:250.

[4] = About 9 week (67 day) test in adult mice with butyrate added to food; type: in vivo; details: 67 day test period
Experimental: Another test on adult mice was run for about 9 weeks. Butyrate was mixed with chocolate and/or cornstarch and the mixture was added to the mice's food (a commercial guinea pig food—Aytec Supreme Daily Blend Guinea Pig Diet). The butyrate dose started at 11.1 mg per mouse twice a day at the beginning of the study and ended up at 58 mg per mouse twice a day at the end of the study. The non-butyrate-fed mice had the same chocolate and/or cornstarch added to their food in equal weight compared to the butyrate-fed mice. The four butyrate mice gained an average of 50 mg each over the 67 day test period, and the four non-butyrate mice gained an average of 325 mg each over the 67 day test period. While no weight loss occurred in either group the butyrate mice gained less weight, by a ratio of about 6.5 to 1.

[5] = Experimental administration of potassium butyrate capsules as a weight loss agent to two human volunteers; type: in vivo; parameters: triglyceride values / total cholesterol / HDL / LDL / triglycerides: unit not given here
Experimental: Based on the inherent safety of butyrate as discussed in medical literature, experimental administration of butyrate was begun on two volunteers. Tests on the two human volunteers has produced weight loss of 17 pounds and 40 pounds respectively at a dosage of 3-5 capsules, once or twice daily (volunteer #1); or 3-5 capsules three times per day (volunteer #2). Each capsule contained approximately 140 mg of potassium butyrate at the start of the test period, and 231 mg each at the end of the test period. The butyrate capsules typically contain 231 to 287 mg of potassium butyrate and 345 to 431 mg of corn starch and 345 to 431 mg of sodium bicarbonate in a 920 to 1 100 mg Size 0 Lilly gelatin capsule. The potassium butyrate is prepared by oxidizing 1-butanol with potassium permanganate in aqueous solution at between 180° F. and 212° F. This reaction produces manganese dioxide and butyric acid and KOH. The manganese dioxide is quite insoluble and is filtered out, and the butyric acid is then neutralized by the potassium hydroxide formed, thus forming the salt, potassium butyrate. The following reactions are thought to produce the potassium butyrate:
The inventor, after having been convinced by the medical literature of the inherent safety of butyrate in humans, began experimental administration of potassium butyrate as a weight loss agent to two volunteers, one of which was […]. The starting dose was 23 mg twice a day, in capsules containing 230 mg of a 10% mixture each. Volunteer #1's starting weight then was 185 lb measured in the morning, fasting. Volunteer #1's height was […] making their body mass index (BMI) […]. Note this is in the range regarded as being overweight (25-30). The dose was increased to 66 mg twice a day a couple of days later, and after 20 days the weight declined to 181 lb. The dose was increased to 130 mg twice a day before meals after about a month. Weight after 2 months was 174 lb. During the 4th through 7th month, the dose averaged 280 mg twice a day on about half the days, skipping it on alternate days. Weight reached its lowest point after about 7 months: 168 lb, BMI 24.5, which is the upper range of normal. After that, the dose has been an average of […] once a day, taken before meals, but only used on alternate days. The weight on this low dose rose to 174 lb and has stayed within 4 lb of that for the last 5 months.
Another test subject, volunteer #2, started on potassium butyrate when weight was 256 lb, height 5′3″, BMI 40. Prior to this use of butyrate, subject's most successful weight losses was 50 lb over a 3 month period while on Optifast program, a 400 calorie a day supplemented fasting program.
The starting dose of butyrate was 40 mg three times a day. It was rapidly escalated to 560 mg before each meal and continued on that dose for about 6 months, when the dose was increased to 800 mg three times a day. Weight after 6 months was 222 lbs. The same dose was continued from that point for another 6 months. Then their weight was 220. Dose was then increased to 1150 mg three times a day for another 8 days. Then their weight was 216 after about a year, for a total of 40 lbs of weight loss during this slightly more than one year duration clinical trial. BMI declined to 35.

## CCCC(=O)O [alkaline butyrate ion, reference compound]
[1]; mouse, in vivo
  colitis: did not cause colitis

## CCCC(=O)[O-].[K+] [potassium butyrate]
[2]
  half-life in the serum: 2 min
[3]; adolescent mice, 3.47 mg per dose twice a day
  tolerability: well tolerated
[3]; adolescent mice, 10 week experiment
  weight gain less than non-butyrate mice: about 10%
[3]; adolescent mice, 10 week experiment, 3.47 then 11.5 mg twice a day, non-butyrate mice 18.6 grams
  average weight gain per mouse: 17 grams
[3]; mice
  difference in behavior, activity or agility vs non-butyrate group: no difference
[4]; 11.1 to 58 mg per mouse twice a day, non-butyrate mice 325 mg
  average weight gain per mouse: 50 mg
[4]; ratio to 1
  ratio of weight gain, non-butyrate to butyrate mice: about 6.5
[5]; volunteer #1
  adverse effects: No adverse effects occurred except for occasional transient epigastric aching soon after a dose
  cholesterol and cholesterol ratios: not changed significantly
  halitosis or foul eructation: No halitosis or foul eructation occurred
  liver enzymes and liver function tests: remained normal
[5]; volunteer #1, 3-5 capsules once or twice daily
  weight loss: 17 pounds
[5]; volunteer #1, after 2 months, 130 mg twice a day before meals, starting weight 185 lb
  weight: 174 lb
[5]; volunteer #1, after 20 days, 23 then 66 mg twice a day, starting weight 185 lb
  weight: 181 lb
[5]; volunteer #1, after about 6 months, initially 310
  triglyceride values: 230
[5]; volunteer #1, after about 7 months, 280 mg twice a day on about half the days, starting weight 185 lb
  weight, lowest point: 168 lb
[5]; volunteer #1, after about 7 months, starting BMI 27
  body mass index (BMI): 24.5
[5]; volunteer #1, after about 14 months
  carpal tunnel syndrome symptoms: improved markedly
[5]; volunteer #1, after about 14 months, hypertension before required 4 mg per day Cardura
  blood pressure: normal without medication
[5]; volunteer #1, checked periodically
  blood counts and survey chemistries (SMA-18 or comprehensive chemistry): normal
[5]; volunteer #1, low dose, average 660 mg once a day on alternate days, stayed within 4 lb for the last 5 months
  weight: 174 lb
[5]; volunteer #1, over 4 months, from 48
  HDL cholesterol: 47
[5]; volunteer #1, over 4 months, from 235
  total cholesterol: 236
[5]; volunteer #2
  fatigue: lessened
  feeling of general well being: improved
[5]; volunteer #2, 3-5 capsules three times per day
  weight loss: 40 pounds
[5]; volunteer #2, after 1 year's use vs previous test
  exercise tolerance on treadmill exercise stress tests: almost doubled
[5]; volunteer #2, after 1 year's use, previous test 4 minutes
  time able to walk on treadmill in stress test: 7 min
[5]; volunteer #2, after 6 months, 560 mg before each meal, starting weight 256 lb
  weight: 222 lbs
[5]; volunteer #2, after about a year, 1150 mg three times a day for another 8 days, starting weight 256 lb
  weight: 216 lbs
[5]; volunteer #2, after about a year, starting BMI 40
  BMI: 35
[5]; volunteer #2, after another 6 months at 800 mg three times a day, starting weight 256 lb
  weight: 220 lbs
[5]; volunteer #2, dropped from 266
  total cholesterol: 238
[5]; volunteer #2, during butyrate use
  abnormalities on periodic comprehensive chemistry blood tests and blood counts: no abnormalities have appeared
[5]; volunteer #2, from 56
  HDL: 52
[5]; volunteer #2, from 160
  LDL: 150
[5]; volunteer #2, from 269
  triglycerides: 179
[5]; volunteer #2, slightly more than one year
  total weight loss: 40 lbs

## CCCC(=O)O [butyric acid]
[1]; 1% concentration instilled into mouse colons
  colitis: caused colitis
